These results are taken from patent US12371454B2, “Cyclic peptide compound having Kras inhibitory action” (priority 2019, dated 2025).

Starred links: 1 amine or outer side, 2 acyl side, 3 side chain; linkers in the order of their positions; H or OH if unused. Positions of bridges follow the written chain, without caps; N, C: chain ends. Non-standard residues stand in square brackets, D forms with d. Residues, ends and D or L forms follow the SMILES beside them. *: point of attachment. hPhe(3,5-F2-4-CF3) = N[C@@H](CCc1cc(F)c(C(F)(F)F)c(F)c1)C(=O)O; hPhe(3-Cl-4-CF3) = N[C@@H](CCc1ccc(C(F)(F)F)c(Cl)c1)C(=O)O; hPhe(3-F,4-CF3) = N[C@@H](CCc1ccc(C(F)(F)F)c(F)c1)C(=O)O; NMePhe(4-CF3) = CN[C@@H](Cc1ccc(C(F)(F)F)cc1)C(=O)O; hPhe(4-CF3) = N[C@@H](CCc1ccc(C(F)(F)F)cc1)C(=O)O; X50 = O=C([C@H](Cc1cc(F)cc(Br)c1)N[*:1])[*:2]; NMeAbu(4,4,4-F3) = CN[C@@H](CC(F)(F)F)C(=O)O; NMePhe(4-Cl) = CN[C@@H](Cc1ccc(Cl)cc1)C(=O)O; NEtPhe(2-Cl) = CCN[C@@H](Cc1ccccc1Cl)C(=O)O; Oic = O=C(O)[C@@H]1C[C@@H]2CCCC[C@@H]2N1; Phe(3-Cl) = N[C@@H](Cc1cccc(Cl)c1)C(=O)O; NMeGly(cPent) = CN[C@H](C(=O)O)C1CCCC1; Phe(3-I) = N[C@@H](Cc1cccc(I)c1)C(=O)O; X10 = CC(C)=CC[C@H](N[*:1])C(=O)[*:2]; NMeY = CN[C@@H](Cc1ccc(O)cc1)C(=O)O; NMeCha = CN[C@@H](CC1CCCCC1)C(=O)O; NMeChg = CN[C@H](C(=O)O)C1CCCCC1; NMeF = CN[C@@H](Cc1ccccc1)C(=O)O; NMeD = CN[C@@H](CC(=O)O)C(=O)O; NMeL = CN[C@@H](CC(C)C)C(=O)O; NMeV = CN[C@H](C(=O)O)C(C)C; d(β3hA) = C[C@@H](N)CC(=O)O; NMeAbu = CC[C@H](NC)C(=O)O; NMeA = CN[C@@H](C)C(=O)O; NMeAib = CNC(C)(C)C(=O)O; Nle = CCCC[C@H](N)C(=O)O; Piperidide = C1CCN(*)CC1; Pra = C#CC[C@H](N)C(=O)O; Pyrrolidide = C1CCN(*)C1; Ac5c = NC1(C(=O)O)CCCC1; Aze = O=C(O)[C@@H]1CCN1; Ac4c = NC1(C(=O)O)CCC1; Aib = CC(C)(N)C(=O)O; Sar = CNCC(=O)O

The target of this experiment is T1, Kras and SOS1 (biotin-tagged human Kras loaded with GDP, His-tagged human SOS1) (Homo sapiens, UniProt P01116, G12D).
T1 construct: made in house; host or cells: E. coli (stated for Kras only)
T1 sequence (P01116 1-188 isoform P01116-2 G12D): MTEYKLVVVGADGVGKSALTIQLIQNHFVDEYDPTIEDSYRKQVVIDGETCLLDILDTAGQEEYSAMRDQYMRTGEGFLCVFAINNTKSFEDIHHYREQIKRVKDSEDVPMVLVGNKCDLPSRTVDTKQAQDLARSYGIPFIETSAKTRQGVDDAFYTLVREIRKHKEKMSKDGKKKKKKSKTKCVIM
Briefly: Protein-protein interaction inhibition between Kras and SOS1 (KrasGl2D-SOS PPI) using AlphaScreen. The format is binding. The note with it: AlphaScreen; biotin-tagged human Kras loaded with GDP, His-tagged human SOS1; read-out: KRAS G12D-SOS PPI IC50. In short, it runs like this: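 Read-out is acceptor-bead light at 520-620 nm, arising when 680 nm-irradiated nickel donor beads pass singlet oxygen to streptavidin acceptors. The bead pair links His-tagged SOS1 with biotin-tagged, GDP-bound Kras from E. coli.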
A general note: Alpha assays give light when donor and acceptor beads are brought close together.
One may read the IC50 as the point on the concentration scale where inhibition reaches its midpoint. Regarding `CCCC[C@@H]1NC(=O)[C@H](Cc2cc(F)cc(Br)c2)NC(=O)CN(C)C(=O)[C@H](Cc2ccc(OC)cc2)N(C)C(=O)[C@@H]2CCN2C(=O)[C@H](C)N(C)C(=O)[C@H]([C@@H](C)CC)NC(=O)[C@H](CC)N(C)C(=O)C[C@@H](C(=O)N2CCCCC2)N(C)C(=O)[C@H](CC(C)C)NC(=O)C(C)(C)N(C)C1=O` [Compound 1372] ([NMeAbu]I[NMeA][Aze][NMeY](Me)[Sar][X50][Nle][NMeAib]L[NMeD]-Piperidide; lactam N-11), the IC50 turned out to be 17 nM.
`CC[C@H](C)[C@@H]1NC(=O)[C@H](C)N(C)C(=O)C[C@@H](C(=O)N2CCCC2)N(C)C(=O)[C@H](C(C)C)N(C)C(=O)C2(CCCC2)NC(=O)[C@H](Cc2ccccc2Cl)N(CC)C(=O)[C@H](CCc2ccc(C(F)(F)F)c(Cl)c2)NC(=O)CN(C)C(=O)[C@H](CC2CCCCC2)N(C)C(=O)CN(C)C(=O)CN(C)C1=O` [Compound 2162] ([NMeA]I[Sar][Sar][NMeCha][Sar][hPhe(3-Cl-4-CF3)][NEtPhe(2-Cl)][Ac5c][NMeV][NMeD]-Pyrrolidide; lactam N-11): the IC50 stood at 200 nM.
Turning to `CC[C@H](C)[C@@H]1NC(=O)[C@H](CC(C)C)N(C)C(=O)C[C@@H](C)NC(=O)[C@H](CC(C)C)N(C)C(=O)C(C)(C)NC(=O)[C@@H]2C[C@@H]3CCCC[C@@H]3N2C(=O)[C@H](CCc2ccc(C(F)(F)F)cc2)NC(=O)CN(C)C(=O)[C@H](Cc2ccc(Cl)cc2)N(C)C(=O)CN(C)C(=O)CN(C)C1=O` [Compound 922] (cyclo([Aib][NMeL][d(β3hA)][NMeL]I[Sar][Sar][NMePhe(4-Cl)][Sar][hPhe(4-CF3)][Oic])), the concentration for half-maximal inhibition (IC50) was 230 nM.
The result for `CC[C@H](C)[C@@H]1NC(=O)[C@H](CC(C)C)N(C)C(=O)C[C@@H](C(=O)N2CCCCC2)N(C)C(=O)[C@H](CC(C)C)NC(=O)C(C)(C)N(C)C(=O)[C@H](CC=C(C)C)NC(=O)[C@H](Cc2cccc(I)c2)NC(=O)CN(C)C(=O)[C@H](Cc2ccc(Cl)cc2)N(C)C(=O)[C@@H]2CCN2C(=O)[C@H](C)N(C)C1=O` [Compound 1419] ([NMeL]I[NMeA][Aze][NMePhe(4-Cl)][Sar][Phe(3-I)][X10][NMeAib]L[NMeD]-Piperidide; lactam N-11) reads 46 nM.
As for `CC[C@H](C)[C@@H]1NC(=O)[C@H](CC(C)C)N(C)C(=O)C[C@@H](C(=O)N2CCCCC2)N(C)C(=O)[C@H](C2CCCCC2)N(C)C(=O)C2(CCCC2)NC(=O)[C@@H]2CCCN2C(=O)[C@H](CCc2ccc(C(F)(F)F)c(Cl)c2)NC(=O)CN(C)C(=O)[C@H](C)N(C)C(=O)CN(C)C(=O)CN(C)C1=O` [Compound 1681] ([NMeL]I[Sar][Sar][NMeA][Sar][hPhe(3-Cl-4-CF3)]P[Ac5c][NMeChg][NMeD]-Piperidide; lactam N-11), the IC50 is 3.1 nM.
In the case of `C#CC[C@@H]1NC(=O)[C@H](CC(C)C)N(C)C(=O)C[C@@H](C)NC(=O)[C@H](CC(C)C)N(C)C(=O)C2(CCCC2)NC(=O)[C@@H]2CCCN2C(=O)[C@H](CCc2ccc(C(F)(F)F)c(F)c2)NC(=O)CN(C)C(=O)[C@H](CC2CCCCC2)N(C)C(=O)CN(C)C(=O)CN(C)C1=O` [Compound 1533] (cyclo([Ac5c][NMeL][d(β3hA)][NMeL][Pra][Sar][Sar][NMeCha][Sar][hPhe(3-F,4-CF3)]P)), the IC50 was found to be 68 nM.
As to `CC[C@H](C)[C@@H]1NC(=O)[C@H](CC(F)(F)F)N(C)C(=O)C[C@@H](C(=O)N2CCCC2)N(C)C(=O)[C@H](C2CCCCC2)N(C)C(=O)C2(CCCC2)NC(=O)[C@@H]2CCCN2C(=O)[C@H](CCc2cc(F)c(C(F)(F)F)c(F)c2)NC(=O)CN(C)C(=O)[C@H](Cc2ccc(C(F)(F)F)cc2)N(C)C(=O)CN(C)C(=O)CN(C)C1=O` [Compound 1244] ([NMeAbu(4,4,4-F3)]I[Sar][Sar][NMePhe(4-CF3)][Sar][hPhe(3,5-F2-4-CF3)]P[Ac5c][NMeChg][NMeD]-Pyrrolidide; lactam N-11), the IC50 came out at 0.63 nM.
On to `CC[C@H](C)[C@@H]1NC(=O)[C@H](C)N(C)C(=O)C[C@@H](C(=O)N2CCCC2)NC(=O)[C@H](CC(C)C)NC(=O)[C@H](Cc2ccccc2)N(C)C(=O)[C@H](CC(C)C)NC(=O)[C@H](Cc2cccc(Cl)c2)NC(=O)CN(C)C(=O)[C@H](Cc2ccc(Cl)cc2)N(C)C(=O)CN(C)C(=O)CN(C)C1=O` [Compound 499] ([NMeA]I[Sar][Sar][NMePhe(4-Cl)][Sar][Phe(3-Cl)]L[NMeF]LD-Pyrrolidide; lactam N-11), for which the IC50 was 85 nM.
As to `CC[C@H](C)[C@@H]1NC(=O)[C@H](C)N(C)C(=O)C[C@@H](C)NC(=O)[C@H](C2CCCC2)N(C)C(=O)C2(CCC2)NC(=O)[C@@H]2CCCN2C(=O)[C@H](CCc2ccc(C(F)(F)F)c(Cl)c2)NC(=O)CN(C)C(=O)[C@H](CC2CCCCC2)N(C)C(=O)CN(C)C(=O)CN(C)C1=O` [Compound 1506] (cyclo([Ac4c][NMeGly(cPent)][d(β3hA)][NMeA]I[Sar][Sar][NMeCha][Sar][hPhe(3-Cl-4-CF3)]P)), the IC50 was 2.9 nM.
